Values joined by “and” are separate entries in the source; they are usually repeats but may differ in a detail not shown here. Equal values may be shown once. Read-outs that look alike come from different tables or passages of the source.
Assays:
human TMPRSS2 = human TMPRSS2 (Homo sapiens, UniProt O15393); assay: cell-based; settings: for TMPRSS2 relative activity: technical duplicates
[1] = target: T1, Recombinant human matriptase (Homo sapiens, UniProt Q9Y5Y6); assay: Protease selectivity, Ki on recombinant protease; assay type: biochemical; settings: mean ± s.d., max concentration 10 µM; read-out: Ki Matriptase
T1 construct: made in house
T1 sequence (Q9Y5Y6 1-855): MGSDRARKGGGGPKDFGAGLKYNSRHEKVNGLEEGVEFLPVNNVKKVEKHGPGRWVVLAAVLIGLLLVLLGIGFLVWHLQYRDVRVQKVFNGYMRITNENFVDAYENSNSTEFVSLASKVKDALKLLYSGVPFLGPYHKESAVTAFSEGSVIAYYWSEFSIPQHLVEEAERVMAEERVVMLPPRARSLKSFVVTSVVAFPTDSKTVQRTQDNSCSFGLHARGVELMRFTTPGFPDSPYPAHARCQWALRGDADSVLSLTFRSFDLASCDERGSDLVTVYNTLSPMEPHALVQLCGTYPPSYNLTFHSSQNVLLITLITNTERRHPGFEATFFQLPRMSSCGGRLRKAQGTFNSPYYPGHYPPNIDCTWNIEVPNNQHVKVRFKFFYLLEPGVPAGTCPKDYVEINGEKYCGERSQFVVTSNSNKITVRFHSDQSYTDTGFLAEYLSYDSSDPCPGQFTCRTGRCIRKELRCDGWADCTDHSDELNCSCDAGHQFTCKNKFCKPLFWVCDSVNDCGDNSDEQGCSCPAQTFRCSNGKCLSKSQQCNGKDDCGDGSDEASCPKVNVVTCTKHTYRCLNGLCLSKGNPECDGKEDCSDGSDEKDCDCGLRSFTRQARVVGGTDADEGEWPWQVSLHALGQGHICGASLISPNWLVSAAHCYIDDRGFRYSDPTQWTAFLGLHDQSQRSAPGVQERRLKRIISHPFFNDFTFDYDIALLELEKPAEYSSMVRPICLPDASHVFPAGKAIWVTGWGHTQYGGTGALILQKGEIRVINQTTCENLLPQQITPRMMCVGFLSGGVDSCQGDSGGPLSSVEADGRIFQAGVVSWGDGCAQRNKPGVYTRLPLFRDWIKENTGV

Recombinant human hepsin = target: T2, Recombinant human hepsin (Homo sapiens, UniProt P05981); assay: Protease selectivity, Ki on recombinant protease; assay type: biochemical; settings: mean ± s.d., max concentration 10 µM; read-out: Ki Hepsin
T2 construct: made in house
T2 sequence (P05981 whole entry): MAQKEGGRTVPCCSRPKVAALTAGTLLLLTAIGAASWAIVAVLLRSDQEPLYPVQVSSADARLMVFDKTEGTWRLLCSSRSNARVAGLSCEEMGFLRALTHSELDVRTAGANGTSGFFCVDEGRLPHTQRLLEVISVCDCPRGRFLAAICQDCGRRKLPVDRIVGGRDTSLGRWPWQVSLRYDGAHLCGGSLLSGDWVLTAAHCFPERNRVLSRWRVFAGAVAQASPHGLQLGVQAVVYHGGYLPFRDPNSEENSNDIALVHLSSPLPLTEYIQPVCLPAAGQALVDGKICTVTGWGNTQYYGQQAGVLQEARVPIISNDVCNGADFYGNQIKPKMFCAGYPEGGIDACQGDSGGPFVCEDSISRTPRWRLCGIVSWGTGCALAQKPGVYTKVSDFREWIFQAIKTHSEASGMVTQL

Recombinant human DESC1 = target: T3, Recombinant human DESC1 (Homo sapiens, UniProt Q9UL52); assay: Protease selectivity, Ki on recombinant protease; assay type: biochemical; settings: mean ± s.d., max concentration 10 µM; read-out: Ki DESC1
T3 construct: made in house
T3 sequence (Q9UL52 1-423): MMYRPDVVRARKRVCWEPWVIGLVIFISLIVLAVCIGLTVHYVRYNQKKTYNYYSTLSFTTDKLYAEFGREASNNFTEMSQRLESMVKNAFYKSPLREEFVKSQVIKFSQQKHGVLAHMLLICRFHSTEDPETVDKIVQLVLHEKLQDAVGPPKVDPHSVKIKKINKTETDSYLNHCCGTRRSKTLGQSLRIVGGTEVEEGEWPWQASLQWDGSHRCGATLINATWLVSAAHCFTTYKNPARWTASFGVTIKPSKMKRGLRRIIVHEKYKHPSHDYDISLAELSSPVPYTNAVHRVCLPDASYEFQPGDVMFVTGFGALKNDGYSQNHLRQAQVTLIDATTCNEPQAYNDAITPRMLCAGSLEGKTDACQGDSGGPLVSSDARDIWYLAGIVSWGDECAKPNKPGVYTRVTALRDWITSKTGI

human thrombin = target: T4, human thrombin (Homo sapiens, UniProt P00734); assay: Protease selectivity, Ki on protease; assay type: biochemical; settings: mean ± s.d., max concentration 10 µM; read-out: Ki Thrombin
T4 construct: purchased MilliporeSigma

Recombinant human furin = target: T5, Recombinant human furin (Homo sapiens, UniProt P09958); assay: Protease selectivity, Ki on recombinant protease; assay type: biochemical; settings: mean ± s.d., max concentration 10 µM; read-out: Ki Furin
T5 construct: purchased Bio-Techne
T5 sequence (P09958 108-794): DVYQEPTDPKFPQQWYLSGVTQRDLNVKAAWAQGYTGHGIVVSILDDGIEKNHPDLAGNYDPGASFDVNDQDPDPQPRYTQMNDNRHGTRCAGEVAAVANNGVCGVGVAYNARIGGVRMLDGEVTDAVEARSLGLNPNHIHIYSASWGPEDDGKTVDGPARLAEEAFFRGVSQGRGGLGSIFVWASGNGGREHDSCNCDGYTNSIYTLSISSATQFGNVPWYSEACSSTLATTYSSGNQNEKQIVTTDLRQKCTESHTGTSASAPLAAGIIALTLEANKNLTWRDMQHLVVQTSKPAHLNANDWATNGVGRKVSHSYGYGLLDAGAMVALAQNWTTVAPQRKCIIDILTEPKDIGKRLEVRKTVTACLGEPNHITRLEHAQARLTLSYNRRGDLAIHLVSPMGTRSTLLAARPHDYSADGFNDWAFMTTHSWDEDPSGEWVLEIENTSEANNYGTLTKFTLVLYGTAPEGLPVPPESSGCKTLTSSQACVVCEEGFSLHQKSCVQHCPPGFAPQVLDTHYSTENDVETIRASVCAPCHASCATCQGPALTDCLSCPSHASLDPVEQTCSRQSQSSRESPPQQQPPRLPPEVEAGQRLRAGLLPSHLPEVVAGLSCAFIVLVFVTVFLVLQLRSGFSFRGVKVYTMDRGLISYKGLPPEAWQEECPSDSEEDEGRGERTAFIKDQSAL

human cathepsin L = target: T6, human cathepsin L (Homo sapiens, UniProt P07711); assay: Protease selectivity, Ki on protease; assay type: biochemical; settings: mean ± s.d., max concentration 10 µM; read-out: Ki Cathepsin L
T6 construct: purchased Bio-Techne
T6 sequence (P07711 114-333): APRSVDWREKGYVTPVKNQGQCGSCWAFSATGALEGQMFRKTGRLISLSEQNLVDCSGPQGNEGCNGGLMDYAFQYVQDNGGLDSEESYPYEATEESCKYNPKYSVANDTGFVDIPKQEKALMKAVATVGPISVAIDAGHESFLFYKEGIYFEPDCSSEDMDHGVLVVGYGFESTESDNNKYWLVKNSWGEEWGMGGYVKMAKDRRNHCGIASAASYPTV

[2] = tested on: SARS-CoV-2 lineage B strain (VIDO); assay: microbe, parasite or virus in culture; assay type: cell-based
[3] = Cytotoxicity CC50 in Calu-3 lung epithelial cells; assay type: cell-based, human; settings: human, Calu-3 cells; for viability at 24 h, 3000 µM: Log [inhibitor] -2.52; for viability at 24 h, 1000 µM: Log [inhibitor] -3.00; for viability at 24 h, 300 µM: Log [inhibitor] -3.52; for viability at 24 h, 100 µM: Log [inhibitor] -4.00; for viability at 24 h, 30 µM: Log [inhibitor] -4.52; for viability at 24 h, 10 µM: Log [inhibitor] -5.00; for viability at 24 h, 3 µM: Log [inhibitor] -5.52; for viability at 24 h, 0.3 µM: Log [inhibitor] -6.52; for viability at 24 h, 0.03 µM: Log [inhibitor] -7.52; for viability at 24 h, 0.003 µM: Log [inhibitor] -8.52
Calu-3 cells = assay: Cytotoxicity CC50 in Calu-3 lung epithelial cells; assay type: cell-based, human; settings: single replicates
[4] = read-out: % of Viability, Average (n=2)
[5] = single replicates, read-out: % of Viability

Sequence of human TMPRSS2 (O15393 whole entry): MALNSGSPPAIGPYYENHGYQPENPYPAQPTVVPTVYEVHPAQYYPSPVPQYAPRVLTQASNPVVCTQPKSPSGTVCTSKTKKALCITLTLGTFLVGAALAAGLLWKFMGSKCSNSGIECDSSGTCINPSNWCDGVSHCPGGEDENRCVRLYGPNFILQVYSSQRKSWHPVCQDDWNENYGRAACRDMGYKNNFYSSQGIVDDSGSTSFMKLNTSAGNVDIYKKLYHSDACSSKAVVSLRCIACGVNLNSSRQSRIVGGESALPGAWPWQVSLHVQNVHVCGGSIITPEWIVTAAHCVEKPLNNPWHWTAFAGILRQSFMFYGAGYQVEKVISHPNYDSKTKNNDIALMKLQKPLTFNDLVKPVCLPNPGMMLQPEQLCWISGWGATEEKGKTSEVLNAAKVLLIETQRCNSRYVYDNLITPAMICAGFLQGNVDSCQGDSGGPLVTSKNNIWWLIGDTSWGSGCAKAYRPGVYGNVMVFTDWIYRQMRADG

## N=C(N)NCCCCC(=O)NC(CCC(N)=O)C(=O)NC(Cc1ccccc1)C(=O)NC(CCCNC(=N)N)C(=O)c1nc2ccccc2s1 (stereo not shown) [Compound N-0130, (H)RQFR-kbt]
Human TMPRSS2; 1.00E-06 M
  TMPRSS2 relative activity: 5.317 and 4.665
Human TMPRSS2; 1.00E-07 M
  TMPRSS2 relative activity: 0.9344 and 1.227
Human TMPRSS2; 2.00E-08 M
  TMPRSS2 relative activity: 26.2346 and 28.2385
Human TMPRSS2; 3.20E-11 M
  TMPRSS2 relative activity: 95.7258 and 93.264
Human TMPRSS2; 4.00E-09 M
  TMPRSS2 relative activity: 48.3901 and 50.7993
Human TMPRSS2; 8.00E-10 M
  TMPRSS2 relative activity: 84.4379 and 85.0608
Human TMPRSS2; Figure 1B, single experiments N1-N3
  TMPRSS2 activity (%): 32.9396% and 22.7789% and 30.45%
Human TMPRSS2; TMPRSS2, mean of independent experiments, Figure 1C, read-out: IC50 Mean
  IC50: 0.0031 µM
Human TMPRSS2; TMPRSS2, single experiments, Figure 1C, read-out: IC50 determined from independant experiments
  IC50: 0.00174 µM and 0.00287 µM and 0.0047 µM
Human TMPRSS2; Vero C1008, 10 nM compound, 24 h, vs untreated/vehicle TMPRSS2-expressing Vero E6 cells, read-out: inhibition of TMPRSS2 activity (reduction of substrate proteolysis)
  inhibition at 0.01 µM: 72%
Human TMPRSS2; Vero E6 cells expressing human TMPRSS2, 24 h with fluorogenic substrate, read-out: TMPRSS2 IC50 ± SD
  IC50: 0.0031 ± 0.0015 µM
[1]
  Ki: 0.00013 ± 3e-05 µM
Recombinant human hepsin
  Ki: 0.00038 ± 0.00019 µM
Recombinant human DESC1
  Ki: 0.028 ± 0.01 µM
Human thrombin
  Ki: 8.23 ± 1.55 µM
Recombinant human furin
  Ki: > 10 µM
Human cathepsin L
  Ki: > 10 µM
[2]; Figure 2a, two replicates, DMSO control about 91-94
  Nucleocapsid: 2.419 and 11.8709
[2]; Figure 2a, two replicates, DMSO control about 93-95
  dsRNA: 3.583 and 18.343
[2]; Severe acute respiratory syndrome coronavirus 2, Calu-3, read-out: SARS-CoV-2 VIDO Nucleocapsid EC50 ± SE
  EC50: 0.0301 ± 0.0301 µM
[2]; Severe acute respiratory syndrome coronavirus 2, Calu-3, read-out: inhibition of SARS-CoV-2 infection
  inhibition at 0.1 µM: > 93%
[2]; log [C] (nM) 0.20412
  Figure 2b dose-response, Mean: 93.6494
[2]; log [C] (nM) 0.90309
  Figure 2b dose-response, Mean: 82.4234
[2]; log [C] (nM) 1.60206
  Figure 2b dose-response, Mean: 39.6362
[2]; log [C] (nM) 2.30103
  Figure 2b dose-response, Mean: 5.2153
[2]; log [C] (nM) 3
  Figure 2b dose-response, Mean: 0.8023
[2]; log [C] (nM) -0.49485
  Figure 2b dose-response, Mean: 100
[2]; log [C] (nM) -1.19382
  Figure 2b dose-response, Mean: 97.2147
[3]; [4]
  viability at 24 h, 3000 µM: 44.5%
  viability at 24 h, 1000 µM: 86.5%
  viability at 24 h, 300 µM: 90.5%
  viability at 24 h, 100 µM: 91%
  viability at 24 h, 30 µM: 96.5%
  viability at 24 h, 10 µM: 95%
  viability at 24 h, 3 µM: 100%
  viability at 24 h, 0.3 µM: 106%
  viability at 24 h, 0.03 µM: 101%
  viability at 24 h, 0.003 µM: 104%
[3]; [5]
  viability at 24 h, 3000 µM: 42%
  viability at 24 h, 1000 µM: 84%
  viability at 24 h, 300 µM: 90%
  viability at 24 h, 100 µM: 88%
  viability at 24 h, 30 µM: 98%
  viability at 24 h, 10 µM: 98%
  viability at 24 h, 3 µM: 99%
  viability at 24 h, 0.3 µM: 103%
  viability at 24 h, 0.03 µM: 99%
  viability at 24 h, 0.003 µM: 101%
[3]; unit not given for CC50, read-out: CC50
  CC50 at 24 h: 2680 µM
Calu-3 cells; Log [inhibitor] -2.52
  % of Viability: 47%
Calu-3 cells; Log [inhibitor] -3.00
  % of Viability: 89%
Calu-3 cells; Log [inhibitor] -4.00
  % of Viability: 94%
Calu-3 cells; Log [inhibitor] -5.00
  % of Viability: 92%
Calu-3 cells; Log [inhibitor] -6.52
  % of Viability: 108%
Calu-3 cells; Log [inhibitor] -8.52
  % of Viability: 107%
